Results on one substance are retold here after patent US20250144205A1, “COMPOSITIONS AND METHODS FOR TREATING INFECTIOUS DISEASES” (priority 2022, published 2025).

In the test the test system is TSE-induced lung injury (TSE-LI). Nature of the test: chronic tobacco smoke exposure induced lung injury (TSE-LI) in wild-type mice. In kind it is in vivo. The protocol: Recombinant full-length U5a protein (U5a^FL), extracellular domain of U5a^FL (U5a^ECD) and U5a^ECD-specific monoclonal antibody (U5a^mAb, the 17C9 1 anti-U5a antibody comprising the sequences of SEQ ID NOs. 204 and 211) mitigated chronic TS exposure (TSE) induced lung injury (TSE-LI) in wild-type (WT) mice. WT mice were kept in ambient AIR or exposed to tobacco smoke (TSE) for 4 h/day 5 days a week. After 16 weeks, WT mice with TSE-LI were left untreated (None) or treated with 2.5 mg/kg of U5a^FL, U5a^ECD and U5amAb 5 days a week for 4 weeks by IP injection. Total lung RNA were analyzed for MUC5AC (M5Ac) (FIG. 12A), FOXA2 (FIG. 12B) and surfactant protein-C(SP-C) (FIG. 12C) mRNA by qPCR. Lung sections of mice treated as in FIG. 12A were subjected to IHC analysis for M5Ac (FIG. 12D). We found increased expression of U5a in AECs and ATII cells in lungs of patients with COPD and mice with TSE-LI. […] In addition, increased surfactant protein-C(SP-C) indicates improved survival of ATII cells, which is otherwise reduced due to increased TSE-induced senescence and apoptosis of ATII cells seen in mice with TSE-LI left untreated.

Regarding “U5a^ECD: extracellular domain of U5a^FL; ECD of UNC5A given as SEQ ID NO: 103”, for the setting “WT mice with TSE-LI, 2.5 mg/kg IP 5 days a week for 4 weeks, FIG. 12A, 12D”, the “MUC5AC (M5Ac) expression (lung mRNA by qPCR, IHC)” value is recorded as “significantly inhibits”. For the same substance, the “FOXA2 mRNA (qPCR)” value (WT mice with TSE-LI, 2.5 mg/kg IP 5 days a week for 4 weeks, FIG. 12B) is “inducing”. The “surfactant protein-C (SP-C) mRNA (qPCR)” value (WT mice with TSE-LI, 2.5 mg/kg IP 5 days a week for 4 weeks, FIG. 12C) was “increased”. The “chronic TS exposure (TSE) induced lung injury (TSE-LI)” value (WT mice, 2.5 mg/kg IP 5 days a week for 4 weeks after 16 weeks TSE) was “mitigated”.
